US20070225308A1, “2-Amino Quinazoline Derivative” (Kyowa Hakko Kogyo Co.,Ltd., priority 2004, published 2007)
Each block holds one compound with its values, some of them ahead of it.

Key:
[1] = biological target: T1, recombinant human PDE-IV (HSPDE4A) (Homo sapiens, UniProt P27815); assay: Recombinant Human PDE-IV-Inhibiting Test; assay type: biochemical; conditions: at the concentration of 0.1 μmol/L; substrate [3H]cAMP 1 μmol/L; read-out: enzyme-inhibitory activity
T1 construct: made in house; host or cells: Sf9 insect cells
Procedure: Recombinant Human PDE-IV-Inhibiting Test
A human PDE cDNA (HSPDE4A) was isolated from HL-60 cells. An expected amino acid sequence thereof is the same as the sequence (HSPDE4A4) reported by Bolger G., et al (Mol. Cell. Biol., 1993, Vol. 13, p. 6558). The recombinant protein was expressed, using Sf9 insect cells. The PDE activity was measured according to the following two-step process, based on the method by Kincid R. L. and Manganiello V. C. (Method. Enzymol., 1988, Vol. 159, p. 457). [^3H]cAMP (final concentration: 1 μmol/L) was used as the substrate. The reaction was performed in a standard, mixture containing N,N-bis(2-hydroxyethyl)-2-aminoethanesulfonic acid (50 mmol/L, pH 7.2), magnesium chloride (1 mmol/L) and soybean trypsin inhibitor (0.1 mg/mL). The reaction was started by the addition of enzyme, and the reaction mixture was incubated at 30° C. for 10 to 30 minutes. The reaction was stopped by hydrochloric acid, and the formed 5′-AMP was completely decomposed by 5′-nucleotidase. The resulting mixture was treated with chromatography of DEAE-Sephadex A-25, and the eluted [^3H]adenosine was counted with a scintillation counter. The test compounds were dissolved in DMSO, and added to the system (concentration 1.7%).

T1 sequence (P27815 whole entry): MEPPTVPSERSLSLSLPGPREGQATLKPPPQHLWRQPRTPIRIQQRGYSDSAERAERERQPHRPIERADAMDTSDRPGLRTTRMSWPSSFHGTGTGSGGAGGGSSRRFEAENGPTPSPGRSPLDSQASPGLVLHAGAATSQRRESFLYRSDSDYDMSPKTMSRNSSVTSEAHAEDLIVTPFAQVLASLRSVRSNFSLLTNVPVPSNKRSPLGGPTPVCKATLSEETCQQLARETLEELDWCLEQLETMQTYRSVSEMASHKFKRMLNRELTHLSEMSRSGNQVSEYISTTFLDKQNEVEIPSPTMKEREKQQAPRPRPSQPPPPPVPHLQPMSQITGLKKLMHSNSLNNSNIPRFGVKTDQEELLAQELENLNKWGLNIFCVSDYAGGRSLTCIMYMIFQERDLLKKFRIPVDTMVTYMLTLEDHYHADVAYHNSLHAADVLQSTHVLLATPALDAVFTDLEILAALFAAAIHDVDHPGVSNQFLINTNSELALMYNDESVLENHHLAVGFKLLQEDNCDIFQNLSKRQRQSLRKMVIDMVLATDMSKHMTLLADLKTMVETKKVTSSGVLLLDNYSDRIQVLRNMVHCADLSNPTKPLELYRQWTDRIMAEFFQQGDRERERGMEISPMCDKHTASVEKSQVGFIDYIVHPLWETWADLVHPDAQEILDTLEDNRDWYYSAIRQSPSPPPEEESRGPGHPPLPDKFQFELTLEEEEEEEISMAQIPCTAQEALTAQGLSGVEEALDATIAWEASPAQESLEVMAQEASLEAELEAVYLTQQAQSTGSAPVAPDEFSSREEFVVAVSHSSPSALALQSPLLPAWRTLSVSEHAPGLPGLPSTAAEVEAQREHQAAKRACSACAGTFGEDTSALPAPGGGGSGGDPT

Structure (SMILES): COc1c(-c2ccc(C(=O)O)cc2)cc(-c2cccc([N+](=O)[O-])c2)c2cnc(N)nc12 [Compound 12, 2-Amino-7-(4-carboxyphenyl)-8-methoxy-5-(3-nitrophenyl)quinazoline]
- inhibition at 0.1 µM [1]: ≥ 50%

Structure (SMILES): COc1c(-c2ccc(C(=O)O)cc2)cc(-c2cccc(Cl)c2)c2cnc(N)nc12 [Compound 13, 2-Amino-7-(4-carboxyphenyl)-5-(3-chlorophenyl)-8-methoxyquinazoline]
- inhibition at 0.1 µM [1]: ≥ 50%

Structure (SMILES): COc1c(-c2ccc(C(=O)O)cc2)cc(-c2cccc([N+](=O)[O-])c2)c2cnc(N(C)C)nc12 [Compound 14, 7-(4-Carboxyphenyl)-2-dimethylamino-8-methoxy-5-(3-nitrophenyl)quinazoline]
- inhibition at 0.1 µM [1]: ≥ 50%

Structure (SMILES): COc1c(-c2ccc(C(=O)O)cc2)cc(-c2cccc(Cl)c2)c2cnc(N(C)C)nc12 [Compound 15, 7-(4-Carboxyphenyl)-5-(3-chlorophenyl)-2-dimethylamino-8-methoxyquinazoline]
- inhibition at 0.1 µM [1]: ≥ 50%

Structure (SMILES): CNc1ncc2c(-c3cccc(Cl)c3)cc(-c3ccc(C(=O)O)cc3)c(OC)c2n1 [Compound 18, 7-(4-Carboxyphenyl)-5-(3-chlorophenyl)-8-methoxy-2-(methylamino)quinazoline]
- inhibition at 0.1 µM [1]: ≥ 50%

Structure (SMILES): CNc1ncc2c(-c3cccc(C#N)c3)cc(-c3ccc(C(=O)O)cc3)c(OC)c2n1 [Compound 19, 7-(4-Carboxyphenyl)-5-(3-cyanophenyl)-8-methoxy-2-(methylamino)quinazoline]
- inhibition at 0.1 µM [1]: ≥ 50%

Structure (SMILES): CNc1ncc2c(-c3cncc(Cl)c3)cc(-c3ccc(C(=O)O)cc3)c(OC)c2n1 [Compound 20, 7-(4-Carboxyphenyl)-5-(5-chloropyridine-3-yl)-8-methoxy-2-(methylamino)quinazoline]
- inhibition at 0.1 µM [1]: ≥ 50%

Structure (SMILES): CNc1ncc2c(-c3cccc(Cl)c3)cc(CCC(=O)O)c(OC)c2n1 [Compound 35, 7-(2-Carboxyethyl)-5-(3-chlorophenyl)-8-methoxy-2-(methylamino)quinazoline]
- inhibition at 0.1 µM [1]: ≥ 50%

Structure (SMILES): COc1c(C2=CCNCC2)cc(-c2cccc(Cl)c2)c2cnc(N(C)C)nc12 [Compound 43, 5-(3-Chlorophenyl)-2-dimethylamino-8-methoxy-7-(1,2,5,6-tetrahydropyridine-4-yl)quinazoline]
- inhibition at 0.1 µM [1]: ≥ 50%

More lines, now with the values ahead:

- inhibition at 0.1 µM [1]: ≥ 50%
Structure (SMILES): COc1c(-c2cccc(C(=O)O)c2)cc(-c2cccc(Cl)c2)c2cnc(N(C)C)nc12 [Compound 37, 7-(3-Carboxyphenyl)-5-(3-chlorophenyl)-2-dimethylamino-8-methoxyquinazoline]

- melting point: 208 to 213 °C
Structure (SMILES): CNc1ncc2c(-c3cccc(Cl)c3)cc(-c3ccc(CCC(=O)O)cc3)c(OC)c2n1 [Compound 55, 7-[4(2-Carboxyethyl)phenyl]-5-(3-chlorophenyl)-8-methoxy-2-(methylamino)quinazoline]

- melting point: 258 to 261 °C
Structure (SMILES): CNc1ncc2c(-c3cccc(Cl)c3)cc(-c3cccc(CC(=O)O)c3)c(OC)c2n1 [Compound 59, 7-[3-(Carboxymethyl)phenyl]-5-(3-chlorophenyl)-8-methoxy-2-(methylamino)quinazoline]

- melting point: 291 to 295 °C
Structure (SMILES): CNc1ncc2c(-c3cccc(Cl)c3)cc(/C=C/C(=O)O)c(OC)c2n1 [Compound 95, 7-[E-(2-carboxyethenyl)]-5-(3-chlorophenyl)-8-methoxy-2-(methylamino)quinazoline]

- melting point: 291 to 296 °C
Structure (SMILES): CNc1ncc2c(-c3cccc(Cl)c3)cc(-c3ccc(C(=O)O)cc3)c(O)c2n1 [Compound 112, 7-(4-Carboxyphenyl)-5-(3-chlorophenyl)-8-hydroxy-2-(methylamino)quinazoline]
